From ChEMBL document CHEMBL1201862, “PubChem BioAssay data set” (2004)
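Test compounds were applied to cells in 96-well plates for 48 hours at 5 doses. The concentration for 50% growth inhibition is given as GI50.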 Activity calls are given as the source filed them. Rule as the data show it: active = GI50 up to about 1.1 µM and inactive = higher.

Assays:
Experiment in all cases: DTP human tumour cell line panel, 48 h
786-0 = system: 786-0
A498 = system: A498
A549 = system: A549
ACHN = system: ACHN
BT-549 = system: BT-549
CAKI-1 = system: CAKI-1
COLO 205 = system: COLO 205
DU-145 = system: DU-145
EKVX = system: EKVX
HCC 2998 = system: HCC 2998
HCT-116 = system: HCT-116
HCT-15 = system: HCT-15
HL-60 = system: HL-60
HOP-62 = system: HOP-62
HOP-92 = system: HOP-92
HT-29 = system: HT-29
Hs-578T = system: Hs-578T
IGROV-1 = system: IGROV-1
K562 = system: K562
KM12 = system: KM12
LOX IMVI = system: LOX IMVI
M14 = system: M14
MCF7 = system: MCF7
MDA-MB-231 = system: MDA-MB-231
MDA-MB-435 = system: MDA-MB-435
MDA-N = system: MDA-N
MOLT-4 = system: MOLT-4
Malme-3M = system: Malme-3M
NCI-H226 = system: NCI-H226
NCI-H23 = system: NCI-H23
NCI-H460 = system: NCI-H460
NCI-H522 = system: NCI-H522
NCI/ADR-RES = system: NCI/ADR-RES
OVCAR-3 = system: OVCAR-3
OVCAR-4 = system: OVCAR-4
OVCAR-5 = system: OVCAR-5
OVCAR-8 = system: OVCAR-8
PC-3 = system: PC-3
RPMI-8226 = system: RPMI-8226
SF-268 = system: SF-268
SF-295 = system: SF-295
SF-539 = system: SF-539
SK-MEL-28 = system: SK-MEL-28
SK-MEL-2 = system: SK-MEL-2
SK-MEL-5 = system: SK-MEL-5
SNB-19 = system: SNB-19
SR = system: SR
SW-620 = system: SW-620
TK-10 = system: TK-10
U-251 = system: U-251
UACC-257 = system: UACC-257
UACC-62 = system: UACC-62
UO-31 = system: UO-31
CCRF-CEM = system: CCRF-CEM
SK-OV-3 = system: SK-OV-3
SN12C = system: SN12C
SNB-75 = system: SNB-75
RXF 393 = system: RXF 393

C=CCNC(=O)/C(Cc1cc(Br)c(OC)c(Br)c1O)=N\O
GI50 (786-0): 2.61 µM (inactive) | GI50 (A498): 10.1 µM (inactive) | GI50 (A549): 6.68 µM (inactive) | GI50 (ACHN): 13.4 µM (inactive) | GI50 (BT-549): 3.03 µM (inactive) | GI50 (CAKI-1): 5.18 µM (inactive) | GI50 (COLO 205): 12.3 µM (inactive) | GI50 (DU-145): 5.3 µM (inactive) | GI50 (EKVX): 3.81 µM (inactive) | GI50 (HCC 2998): 4.25 µM (inactive) | GI50 (HCT-116): 3.01 µM (inactive) | GI50 (HCT-15): 2.57 µM | GI50 (HL-60): 1.29 µM (inactive) | GI50 (HOP-62): 2.79 µM (inactive) | GI50 (HOP-92): 4.65 µM (inactive) | GI50 (HT-29): 15 µM (inactive) | GI50 (Hs-578T): 1.32 µM (inactive) | GI50 (IGROV-1): 4.57 µM (inactive) | GI50 (K562): 2.37 µM (inactive) | GI50 (KM12): 2.77 µM (inactive) | GI50 (LOX IMVI): 5.68 µM (inactive) | GI50 (M14): 4.22 µM (inactive) | GI50 (MCF7): 4.17 µM (inactive) | GI50 (MDA-MB-231): 6.73 µM (inactive) | GI50 (MDA-MB-435): 0.515 µM (active) | GI50 (MDA-N): 0.334 µM (active) | GI50 (MOLT-4): 4.76 µM (inactive) | GI50 (Malme-3M): 1.34 µM (inactive) | GI50 (NCI-H226): 2.59 µM (inactive) | GI50 (NCI-H23): 4.16 µM (inactive) | GI50 (NCI-H460): 3.84 µM (inactive) | GI50 (NCI-H522): 1.78 µM (inactive) | GI50 (NCI/ADR-RES): 2.44 µM (inactive) | GI50 (OVCAR-3): 2.38 µM (inactive) | GI50 (OVCAR-4): 7.23 µM (inactive) | GI50 (OVCAR-5): 5.43 µM (inactive) | GI50 (OVCAR-8): 4.65 µM (inactive) | GI50 (PC-3): 6.46 µM (inactive) | GI50 (RPMI-8226): 4.23 µM (inactive) | GI50 (SF-268): 3.58 µM (inactive) | GI50 (SF-295): 3.64 µM (inactive) | GI50 (SF-539): 3.6 µM (inactive) | GI50 (SK-MEL-28): 3.53 µM (inactive) | GI50 (SK-MEL-2): 7.73 µM (inactive) | GI50 (SK-MEL-5): 1.78 µM (inactive) | GI50 (SNB-19): 4.41 µM (inactive) | GI50 (SR): 1.17 µM (inactive) | GI50 (SW-620): 3.15 µM (inactive) | GI50 (TK-10): 10.6 µM (inactive) | GI50 (U-251): 4.53 µM (inactive) | GI50 (UACC-257): 6.15 µM (inactive) | GI50 (UACC-62): 8.75 µM (inactive) | GI50 (UO-31): 3.49 µM (inactive)

CCOP(=O)(OCC)C1CC(O)CN1OC(=O)C(C)(C)C (centres undefined)
GI50 (786-0): > 100 µM (inactive) | GI50 (A498): > 100 µM (inactive) | GI50 (A549): > 100 µM (inactive) | GI50 (ACHN): > 100 µM (inactive) | GI50 (CCRF-CEM): > 100 µM (inactive) | GI50 (COLO 205): > 100 µM (inactive) | GI50 (DU-145): > 100 µM (inactive) | GI50 (EKVX): > 100 µM (inactive) | GI50 (HCT-116): > 100 µM (inactive) | GI50 (HCT-15): > 100 µM | GI50 (HOP-62): > 100 µM (inactive) | GI50 (HT-29): > 100 µM (inactive) | GI50 (Hs-578T): > 100 µM (inactive) | GI50 (IGROV-1): > 100 µM (inactive) | GI50 (K562): > 100 µM (inactive) | GI50 (KM12): > 100 µM (inactive) | GI50 (LOX IMVI): > 100 µM (inactive) | GI50 (M14): > 100 µM (inactive) | GI50 (MCF7): > 100 µM (inactive) | GI50 (MDA-MB-231): > 100 µM (inactive) | GI50 (MDA-MB-435): > 100 µM (inactive) | GI50 (MDA-N): > 100 µM (inactive) | GI50 (MOLT-4): > 100 µM (inactive) | GI50 (Malme-3M): > 100 µM (inactive) | GI50 (NCI-H226): > 100 µM (inactive) | GI50 (NCI-H23): > 100 µM (inactive) | GI50 (NCI/ADR-RES): > 100 µM (inactive) | GI50 (OVCAR-3): > 100 µM (inactive) | GI50 (OVCAR-4): > 100 µM (inactive) | GI50 (OVCAR-5): > 100 µM (inactive) | GI50 (OVCAR-8): > 100 µM (inactive) | GI50 (PC-3): > 100 µM (inactive) | GI50 (RPMI-8226): > 100 µM (inactive) | GI50 (SF-268): > 100 µM (inactive) | GI50 (SF-295): > 100 µM (inactive) | GI50 (SK-MEL-28): > 100 µM (inactive) | GI50 (SK-MEL-2): > 100 µM (inactive) | GI50 (SK-MEL-5): > 100 µM (inactive) | GI50 (SK-OV-3): > 100 µM (inactive) | GI50 (SN12C): > 100 µM (inactive) | GI50 (SNB-19): > 100 µM (inactive) | GI50 (SNB-75): > 100 µM (inactive) | GI50 (SR): > 100 µM (inactive) | GI50 (SW-620): > 100 µM (inactive) | GI50 (TK-10): > 100 µM (inactive) | GI50 (U-251): > 100 µM (inactive) | GI50 (UACC-257): > 100 µM (inactive) | GI50 (UACC-62): > 100 µM (inactive) | GI50 (UO-31): > 100 µM (inactive)

CCOC(=O)C(O)(NC(=O)NC(O)(C(=O)OCC)C(F)(F)F)C(F)(F)F (centres undefined)
GI50 (786-0): > 100 µM (inactive) | GI50 (A498): > 100 µM (inactive) | GI50 (ACHN): > 100 µM (inactive) | GI50 (CCRF-CEM): > 100 µM (inactive) | GI50 (COLO 205): > 100 µM (inactive) | GI50 (HCC 2998): > 100 µM (inactive) | GI50 (HCT-116): > 100 µM (inactive) | GI50 (HCT-15): > 100 µM | GI50 (HL-60): > 100 µM (inactive) | GI50 (HT-29): > 100 µM (inactive) | GI50 (K562): > 100 µM (inactive) | GI50 (LOX IMVI): > 100 µM (inactive) | GI50 (MDA-N): > 100 µM (inactive) | GI50 (MOLT-4): > 100 µM (inactive) | GI50 (NCI-H23): > 100 µM (inactive) | GI50 (NCI/ADR-RES): > 100 µM (inactive) | GI50 (OVCAR-5): > 100 µM (inactive) | GI50 (PC-3): > 100 µM (inactive) | GI50 (RPMI-8226): > 100 µM (inactive) | GI50 (RXF 393): > 100 µM (inactive) | GI50 (SF-268): > 100 µM (inactive) | GI50 (SF-539): > 100 µM (inactive) | GI50 (SK-MEL-28): > 100 µM (inactive) | GI50 (SK-MEL-2): > 100 µM (inactive) | GI50 (SK-OV-3): > 100 µM (inactive) | GI50 (SN12C): > 100 µM (inactive) | GI50 (SNB-19): > 100 µM (inactive) | GI50 (SNB-75): > 100 µM (inactive) | GI50 (SR): > 100 µM (inactive) | GI50 (U-251): > 100 µM (inactive) | GI50 (UACC-257): > 100 µM (inactive) | GI50 (UO-31): > 100 µM (inactive)
